Literature values in patent US10376473B2, “Transdermal adhesive compositions, devices, and methods” (priority 2010, dated 2019).
Read-outs that look alike come from different tables or passages of the source.

Conditions: after 2 months at 60° C.

In the case of `CCN(C)C(=O)Oc1cccc([C@H](C)N(C)C)c1` [(S)—N-ethyl-3-[(1-dimethylamino)ethyl]-N-methylphenyl carbamate], the degradation products (composition with 0.1% tocopherol (antioxidant)) is given as 1.3% and the degradation products (composition without the antioxidant) is given as 4.46%.
